Data as given in publication PMC10111413 (ACS Infectious Diseases, 2023).

Tests used:
A. baumannii NCTC 13420 = type: cell-based; conditions: CLSI, cation-adjusted MHB, 18 h at 37 °C, three technical replicates
Description: (§1) VIII. Antimicrobial testing
(§2) Table S2. Minimum inhibitory concentrations (MICs) determined against panel of previously characterized colistin-resistant A. baumannii clinical isolates5
(§3) Strain Relacidine A (3a) Relacidine B (4a) Relacidamide (5) Colistin […]
(§4) aMIC values given in µg/ml.
(§5) All minimum inhibitory concentrations were determined according to Clinical and Standards Laboratory Institute (CLSI) guidelines. Blood agar plates were inoculated from glycerol stocks of the different A. baumannii strains used and then incubated for 16 h at 37 °C . Individually grown colonies were subsequently used to inoculate 5 mL aliquots of TSB that were then incubated at 37 °C. In parallel, the lipopeptide antibiotics DMSO stocks to be assessed were serially diluted with cation-adjusted MHB in polypropylene 96-well plates (50 µL in each well). Colistin sulfate stocks were dissolved in water before being diluted with cation-adjusted MHB. The A. baumannii inoculated TSB aliquots were incubated until an OD600 of around 0.5 was reached. The bacterial suspensions were then diluted with cation-adjusted MHB (2 x 10^5 CFU mL-1) and added to the microplates containing the test compounds (50 µL to each well). The well-plates were sealed with an adhesive membrane and after 18 h of incubation at 37 °C visually inspected for bacterial growth. MIC values reported are based on three technical replicates and defined as the lowest concentration of the compound that prevented visible

A. baumannii BV172 = type: cell-based; conditions: CLSI, cation-adjusted MHB, 18 h at 37 °C, three technical replicates
Description: as §1, §2, §3, §4, §5

A. baumannii BV94 = type: cell-based; conditions: colistin-resistant clinical isolate; CLSI, cation-adjusted MHB, 18 h at 37 °C, three technical replicates
Description: as §1, §2, §3, §4, §5

A. baumannii NCTC 13304 = type: cell-based; conditions: CLSI, cation-adjusted MHB, 18 h at 37 °C, three technical replicates
Description: as §1, §2, §3, §4, §5

A. baumannii HUMC1 = type: cell-based; conditions: CLSI, cation-adjusted MHB, 18 h at 37 °C, three technical replicates
Description: as §1, §2, §3, §4, §5

A. baumannii BV173 = type: cell-based; conditions: CLSI, cation-adjusted MHB, 18 h at 37 °C, three technical replicates
Description: as §1, §2, §3, §4, §5

A. baumannii LAC-4 = type: cell-based; conditions: CLSI, cation-adjusted MHB, 18 h at 37 °C, three technical replicates
Description: as §1, §2, §3, §4, §5

A. baumannii BV95 = type: cell-based; conditions: CLSI, cation-adjusted MHB, 18 h at 37 °C, three technical replicates
Description: as §1, §2, §3, §4, §5

A. baumannii ATCC 17978 = type: cell-based; conditions: CLSI, cation-adjusted MHB, 18 h at 37 °C, three technical replicates
Description: as §1, §2, §3, §4, §5

[1] = test system: colistin-resistant A. baumannii isolate BV94; assay: G. mellonella larvae infection model; type: in vivo; conditions: injected 1 h postinfection, 10^5 cfu A. baumannii BV94 per larva, ten larvae per group, 37 °C
From the text: Given the promising in vitro activity of relacidamide (5), along with its high serum stability, low hemolytic activity, and ease of synthesis, we further evaluated its efficacy in an established in vivo infection model using G. mellonella larvae. The G. mellonella infection model has gained popularity in recent years and provides a convenient method to assess the in vivo effectiveness and toxicity of novel antibiotics.[15],[16] […] The larvae were first injected with either vehicle (PBS) or A. baumannii BV94 suspension in the right second proleg. The moth larvae were then injected in the left second proleg with either PBS (untreated), colistin at 100 mg/kg or 200 mg/kg, or relacidamide (5) at 100 mg/kg or 200 mg/kg. The G. mellonella larvae were then incubated for 72 h, and their survival was assessed twice per day. […]
Ten G. mellonella larvae (Serum Therapeutics Inc., average weight of 0.265 g) per group were infected using a 10 μL injection in the right second proleg with mid-log phase (OD600 = 0.5)-growing bacteria resuspended and diluted in phosphate-buffered saline (PBS) to achieve the target inoculum of 10^5 colony forming unit (cfu) per larva. […] The viability of the larvae was assessed twice a day up to a total of 72 h postinfection by checking for movement. […]

With colistin [reference compound] the “MIC A. baumannii NCTC 13420” value (A. baumannii NCTC 13420) was 0.5 µg/mL, the “MIC A. baumannii BV172” value (A. baumannii BV172) was over 64 µg/mL and the “MIC A. baumannii BV94” value (A. baumannii BV94) was over 64 µg/mL. For the same substance, the “MIC A. baumannii NCTC 13304” value (A. baumannii NCTC 13304) was 1 µg/mL, the “MIC A. baumannii HUMC1” value (A. baumannii HUMC1) was 1 µg/mL and the “MIC A. baumannii BV173” value (A. baumannii BV173) was 16 µg/mL. The “MIC A. baumannii LAC-4” value (A. baumannii LAC-4) was 0.5 µg/mL, the “MIC A. baumannii BV95” value (A. baumannii BV95) was 32 µg/mL and the “MIC A. baumannii ATCC 17978” value (A. baumannii ATCC 17978) was 1 µg/mL. The “survival of G. mellonella larvae after 72 h” value ([1]; 100 mg/kg) was “none” and the “survival of G. mellonella larvae after 72 h” value ([1]; 200 mg/kg) was “none”.
